Source: PubChem BioAssay (NCI)
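48-hour exposure; five concentrations; linearly interpolated endpoints. At the TGI there is no net growth.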

Columns and labels:
Assay in all cases: DTP human tumour cell line panel, 48 h
[1] = system: 786-0 renal
[2] = system: A498 renal
[3] = system: A549 NSCLC
[4] = system: ACHN renal
[5] = system: BT-549 breast
[6] = system: CAKI-1 renal
[7] = system: CCRF-CEM leukemia
[8] = system: COLO 205 colon
[9] = system: DU-145 prostate
[10] = system: EKVX NSCLC
[11] = system: HCC-2998 colon
[12] = system: HCT-116 colon
[13] = system: HCT-15 colon
[14] = system: HL-60(TB) leukemia
[15] = system: HOP-62 NSCLC
[16] = system: HOP-92 NSCLC
[17] = system: HS 578T breast
[18] = system: HT29 colon
[19] = system: IGROV1 ovarian
[20] = system: K-562 leukemia
[21] = system: KM12 colon
[22] = system: LOX IMVI melanoma
[23] = system: M14 melanoma
[24] = system: MALME-3M melanoma
[25] = system: MCF7 breast
[26] = system: MDA-MB-231 breast
[27] = system: MDA-MB-435
[28] = system: MDA-N
[29] = system: MOLT-4 leukemia
[30] = system: NCI-H226 lung
[31] = system: NCI-H23 lung
[32] = system: NCI-H460 lung
[33] = system: NCI-H522 lung
[34] = system: NCI/ADR-RES ovarian
[35] = system: OVCAR-3 ovarian
[36] = system: OVCAR-4 ovarian
[37] = system: OVCAR-5 ovarian
[38] = system: OVCAR-8 ovarian
[39] = system: PC-3 prostate
[40] = system: RPMI-8226 leukemia
[41] = system: RXF 393 renal
[42] = system: SF-268 CNS
[43] = system: SF-295 CNS
[44] = system: SK-MEL-28 melanoma
[45] = system: SK-MEL-5 melanoma
[46] = system: SK-OV-3 ovarian
[47] = system: SNB-19 CNS
[48] = system: SNB-75 CNS
[49] = system: SR leukemia
[50] = system: SW-620 colon
[51] = system: TK-10 renal
[52] = system: U251 CNS
[53] = system: UACC-257 melanoma
[54] = system: UACC-62 melanoma
[55] = system: UO-31 renal
[56] = system: SF-539 CNS
[57] = system: SK-MEL-2 melanoma
[58] = system: SN12C renal
[59] = system: T-47D breast

Q: With `NC(=Nc1ccc(Cl)cc1)c1ccccc1N` as the compound, how does the TGI [1] read?
A: > 100 µM

Q: And the TGI [2]?
A: > 100 µM

Q: What about the TGI [3] of the same compound?
A: > 100 µM

Q: And the TGI [4]?
A: > 100 µM

Q: What about the TGI [5] of the same compound?
A: > 100 µM

Q: And the TGI [6]?
A: > 100 µM

Q: And the TGI [7]?
A: > 100 µM

Q: And the TGI [8]?
A: > 100 µM

Q: And the TGI [9]?
A: > 100 µM

Q: What about the TGI [10] of the same compound?
A: > 100 µM

Q: What about the TGI [11] of the same compound?
A: > 100 µM

Q: And the TGI [12]?
A: > 100 µM

Q: What about the TGI [13] of the same compound?
A: > 100 µM

Q: And the TGI [14]?
A: > 100 µM

Q: And the TGI [15]?
A: > 100 µM

Q: And the TGI [16]?
A: > 100 µM

Q: What about the TGI [17] of the same compound?
A: > 100 µM

Q: And the TGI [18]?
A: > 100 µM

Q: And the TGI [19]?
A: > 100 µM

Q: And the TGI [20]?
A: > 100 µM

Q: And the TGI [21]?
A: > 100 µM

Q: And the TGI [22]?
A: > 100 µM

Q: And the TGI [23]?
A: > 100 µM

Q: And the TGI [24]?
A: > 100 µM

Q: What about the TGI [25] of the same compound?
A: > 100 µM

Q: What about the TGI [26] of the same compound?
A: > 100 µM

Q: What about the TGI [27] of the same compound?
A: > 100 µM

Q: What about the TGI [28] of the same compound?
A: > 100 µM

Q: What about the TGI [29] of the same compound?
A: > 100 µM

Q: What about the TGI [30] of the same compound?
A: > 100 µM

Q: And the TGI [31]?
A: > 100 µM

Q: And the TGI [32]?
A: > 100 µM

Q: And the TGI [33]?
A: > 100 µM

Q: And the TGI [34]?
A: > 100 µM

Q: And the TGI [35]?
A: > 100 µM

Q: And the TGI [36]?
A: > 100 µM

Q: And the TGI [37]?
A: > 100 µM

Q: What about the TGI [38] of the same compound?
A: > 100 µM

Q: What about the TGI [39] of the same compound?
A: > 100 µM

Q: And the TGI [40]?
A: > 100 µM

Q: What about the TGI [41] of the same compound?
A: > 100 µM

Q: And the TGI [42]?
A: > 100 µM

Q: What about the TGI [43] of the same compound?
A: > 100 µM

Q: And the TGI [44]?
A: > 100 µM

Q: What about the TGI [45] of the same compound?
A: > 100 µM

Q: And the TGI [46]?
A: > 100 µM

Q: And the TGI [47]?
A: > 100 µM

Q: And the TGI [48]?
A: > 100 µM

Q: And the TGI [49]?
A: > 100 µM

Q: And the TGI [50]?
A: > 100 µM

Q: And the TGI [51]?
A: > 100 µM

Q: What about the TGI [52] of the same compound?
A: > 100 µM

Q: And the TGI [53]?
A: > 100 µM

Q: What about the TGI [54] of the same compound?
A: > 100 µM

Q: And the TGI [55]?
A: > 100 µM

Q: Which results are given for `CSC(N)=Nc1cccc2ccccc12`?
A: TGI [1]: > 10 µM; TGI [2]: > 10 µM; TGI [3]: > 10 µM; TGI [4]: > 10 µM; TGI [6]: > 10 µM; TGI [7]: > 10 µM; TGI [8]: > 10 µM; TGI [9]: > 10 µM; TGI [10]: > 10 µM; TGI [11]: > 10 µM; TGI [12]: > 10 µM; TGI [13]: > 10 µM; TGI [14]: > 10 µM; TGI [15]: > 10 µM; TGI [16]: > 10 µM; TGI [18]: > 10 µM; TGI [19]: > 10 µM; TGI [20]: > 10 µM; TGI [21]: > 10 µM; TGI [22]: > 10 µM; TGI [23]: > 10 µM; TGI [24]: > 10 µM; TGI [25]: > 10 µM; TGI [26]: > 10 µM; TGI [27]: > 10 µM; TGI [28]: > 10 µM; TGI [29]: > 10 µM; TGI [30]: > 10 µM; TGI [31]: > 10 µM; TGI [32]: > 10 µM; TGI [33]: > 10 µM; TGI [34]: > 10 µM; TGI [35]: > 10 µM; TGI [36]: > 10 µM; TGI [38]: > 10 µM; TGI [39]: > 10 µM; TGI [40]: > 10 µM; TGI [41]: > 10 µM; TGI [42]: > 10 µM; TGI [43]: > 10 µM; TGI [56]: > 10 µM; TGI [57]: > 10 µM; TGI [44]: > 10 µM; TGI [45]: > 10 µM; TGI [46]: > 10 µM; TGI [58]: > 10 µM; TGI [47]: > 10 µM; TGI [48]: > 10 µM; TGI [49]: > 10 µM; TGI [50]: > 10 µM; TGI [59]: > 10 µM; TGI [51]: > 10 µM; TGI [52]: > 10 µM; TGI [53]: > 10 µM; TGI [54]: > 10 µM; TGI [55]: > 10 µM
